From BindingDB's records for patent US20250346564 (ARase Therapeutics, 2025)
pIC50: −log10 of the molar value.

Target: Poly(ADP-ribose) glycohydrolase (Homo sapiens, UniProt Q86W56)
Test: Inhibition of PARG TEMU Assay
Protocol: The ability of the compounds of the Examples to inhibit PARG activity in 4. (trifluoromethyl)umbelliferone (TFMU) assay was determined as described below. PARG inhibitors were added into 384 well plate for a 10-point dose response curve at 1:3 dilutions. TFMU PARG substrate and PARG (250 pM or 2 nM) were then added to the plate to initiate enzymatic reaction. After incubation with the reagent, […] was read. IC50 values were calculated using set control points for 100% inhibition as no enzyme and 0% inhibition 250 pM or 2 nM of PARG enzyme.

Sequence of Poly(ADP-ribose) glycohydrolase (Q86W56 whole entry): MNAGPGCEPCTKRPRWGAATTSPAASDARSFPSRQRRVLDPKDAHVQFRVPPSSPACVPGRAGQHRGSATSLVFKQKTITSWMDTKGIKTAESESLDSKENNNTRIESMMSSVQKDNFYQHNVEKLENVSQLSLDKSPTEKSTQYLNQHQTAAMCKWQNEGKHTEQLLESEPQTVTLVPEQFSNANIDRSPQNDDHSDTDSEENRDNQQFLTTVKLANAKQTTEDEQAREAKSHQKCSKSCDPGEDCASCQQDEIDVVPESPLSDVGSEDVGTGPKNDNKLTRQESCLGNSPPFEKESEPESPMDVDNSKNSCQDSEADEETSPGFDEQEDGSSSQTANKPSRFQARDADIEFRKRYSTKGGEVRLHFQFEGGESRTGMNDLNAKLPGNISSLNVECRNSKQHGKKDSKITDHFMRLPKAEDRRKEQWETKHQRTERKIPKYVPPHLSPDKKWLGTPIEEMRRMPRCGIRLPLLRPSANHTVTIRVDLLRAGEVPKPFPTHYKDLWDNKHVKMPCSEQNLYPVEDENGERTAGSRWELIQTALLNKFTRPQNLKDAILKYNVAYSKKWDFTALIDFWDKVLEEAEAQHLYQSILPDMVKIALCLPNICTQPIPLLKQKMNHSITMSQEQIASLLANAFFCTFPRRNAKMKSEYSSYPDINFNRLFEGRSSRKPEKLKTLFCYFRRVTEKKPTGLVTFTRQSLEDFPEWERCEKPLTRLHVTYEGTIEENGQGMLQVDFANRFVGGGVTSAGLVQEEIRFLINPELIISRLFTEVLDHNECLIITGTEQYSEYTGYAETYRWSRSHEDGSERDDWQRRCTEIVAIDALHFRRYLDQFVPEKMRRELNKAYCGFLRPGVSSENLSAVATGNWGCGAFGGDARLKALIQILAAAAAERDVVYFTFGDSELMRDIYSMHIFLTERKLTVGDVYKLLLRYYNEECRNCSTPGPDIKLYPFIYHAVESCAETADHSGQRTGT

CC[C@@H]1C[C@]1(C)NS(=O)(=O)c1ccc2c(c1)c(=O)n(CC)c(=O)n2CC [US20250346564, Example 13A]
pIC50: < 5.30

CC1(NS(=O)(=O)c2cc(N3CCN(C(=O)N4CCCC4)CC3)c3cnn(-c4nnc(C(F)F)s4)c3c2)COC1 [US20250346564, Example 35]
pIC50: > 7.30

O=C(N1CCCC1)N1CCN(c2cc(S(=O)(=O)NC3(CF)COC3)cc3c2cnn3-c2nnc(C(F)F)s2)CC1 [US20250346564, Example 36]
pIC50: > 7.30
